Patent US11358953B2, “Functionalized peptides as antiviral agents” (ENANTA PHARMACEUTICALS, INC., priority 2020, dated 2022)
pIC50: −log10 of the molar value.

Biological target: SARS-CoV-2 3CL-protease (Severe acute respiratory syndrome coronavirus 2 (2019-nCoV) (SARS-CoV-2), UniProt P0DTD1)
Test: SARS-CoV-2 3C-like (3CL) protease fluorescence assay (FRET)
Assay type: biochemical
Conditions: recombinant SARS-CoV-2 3CL-protease 10 nM, 30 min preincubation at RT, substrate 40 μM, duplicate

`COc1cccc2[nH]c(C(=O)N3C[C@@H]4CCC[C@@H]4[C@H]3C(=O)N[C@@H](C[C@@H]3CCNC3=O)C(=O)COC(=O)c3c(Cl)cccc3Cl)cc12` [Ex2, (S)-3-((1S,3aR,6aS)-2-(4-methoxy-1H-indole-2-carbonyl)octahydrocyclopenta[c]pyrrole-1-carboxamido)-2-oxo-4-((S)-2-oxopyrrolidin-3-yl)butyl 2,6-dichlorobenzoate] and `COc1cccc2[nH]c(C(=O)N3C[C@@H]4CCC[C@@H]4[C@H]3C(=O)N[C@H](C=O)C[C@@H]3CCNC3=O)cc12` [Ex6, (1S,3aR,6aS)-2-(4-methoxy-1H-indole-2-carbonyl)-N—((S)-1-oxo-3-((S)-2-oxopyrrolidin-3-yl)propan-2-yl)octahydrocyclopenta[c]pyrrole-1-carboxamide] cannot be ordered by pIC50: > 7.00 for the first, > 7.00 for the second.

First: N#C[C@H](C[C@@H]1CCNC1=O)NC(=O)[C@@H]1CCCN1C(=O)c1cc2c(OC(F)F)cccc2[nH]1 [Ex12, (S)—N—((S)-1-cyano-2-((S)-2-oxopyrrolidin-3-yl)ethyl)-1-(4-(difluoromethoxy)-1H-indole-2-carbonyl)pyrrolidine-2-carboxamide]
Second: CC1(C)C2CN(C(=O)c3cc4c(OC(F)F)cccc4[nH]3)[C@H](C(=O)N[C@H](C#N)C[C@@H]3CCNC3=O)C21 (stereo in doubt) [Ex11, (1S,2S,5R)—N—((S)-1-cyano-2-((S)-2-oxopyrrolidin-3-yl)ethyl)-3-(4-(difluoromethoxy)-1H-indole-2-carbonyl)-6,6-dimethyl-3-azabicyclo[3.1.0]hexane-2-carboxamide]
The pIC50 of the first is lower: < 6.00 for the first, 6.00 to 7.00 for the second. The second is the more potent here.

`O=C[C@H](C[C@@H]1CCNC1=O)NC(=O)[C@@H]1[C@H]2CCC[C@H]2CN1C(=O)c1cc2c(OC(F)F)cccc2[nH]1` [Ex5, (1S,3aR,6aS)-2-(4-(difluoromethoxy)-1H-indole-2-carbonyl)-N—((S)-1-oxo-3-((S)-2-oxopyrrolidin-3-yl)propan-2-yl)octahydrocyclopenta[c]pyrrole-1-carboxamide] and `O=C(NC1CCCCC1)C(=O)[C@H](C[C@@H]1CCNC1=O)NC(=O)[C@@H]1[C@H]2CCC[C@H]2CN1C(=O)c1cc2c(OC(F)F)cccc2[nH]1` [Ex8, (1S,3aR,6aS)—N—((S)-4-(cyclohexylamino)-3,4-dioxo-1-((S)-2-oxopyrrolidin-3-yl)butan-2-yl)-2-(4-(difluoromethoxy)-1H-indole-2-carbonyl)octahydrocyclopenta[c]pyrrole-1-carboxamide] cannot be ordered by pIC50: > 7.00 for the first, > 7.00 for the second.

`CC1(C)[C@@H]2[C@@H](C(=O)N[C@H](C#N)C[C@@H]3CCNC3=O)N(C(=O)c3cc4cc(F)c(F)cc4[nH]3)C[C@@H]21` [Ex17, (1R,2S,5S)—N—((S)-1-cyano-2-((S)-2-oxopyrrolidin-3-yl)ethyl)-3-(5,6-difluoro-1H-indole-2-carbonyl)-6,6-dimethyl-3-azabicyclo[3.1.0]hexane-2-carboxamide] and `CC1(C)[C@@H]2[C@@H](C(=O)N[C@H](C#N)C[C@@H]3CCNC3=O)N(C(=O)c3cc4c(F)cc(F)cc4[nH]3)C[C@@H]21` [Ex18, (1R,2S,5S)—N—((S)-1-cyano-2-((S)-2-oxopyrrolidin-3-yl)ethyl)-3-(4,6-difluoro-1H-indole-2-carbonyl)-6,6-dimethyl-3-azabicyclo[3.1.0]hexane-2-carboxamide] fall in the same range of pIC50: 6.00 to 7.00 for the first, 6.00 to 7.00 for the second.

`COc1cccc2[nH]c(C(=O)N3C[C@@H]4CCC[C@@H]4[C@H]3C(=O)N[C@@H](C[C@@H]3CCNC3=O)C(=O)C(=O)NC3CCCCC3)cc12` [Ex9, (1S,3aR,6aS)—N—((S)-4-(cyclohexylamino)-3,4-dioxo-1-((S)-2-oxopyrrolidin-3-yl)butan-2-yl)-2-(4-methoxy-1H-indole-2-carbonyl)octahydrocyclopenta[c]pyrrole-1-carboxamide] and `COc1cccc2[nH]c(C(=O)N3C[C@@H]4CCC[C@@H]4[C@H]3C(=O)N[C@H](C#N)C[C@@H]3CCCNC3=O)cc12` [Ex7, (1S,3aR,6aS)—N—((S)-1-cyano-2-((S)-2-oxopiperidin-3-yl)ethyl)-2-(4-methoxy-1H-indole-2-carbonyl)octahydrocyclopenta[c]pyrrole-1-carboxamide] cannot be ordered by pIC50: > 7.00 for the first, > 7.00 for the second.

`CC(C)(C)[C@H](NC(=O)Cc1ccccc1)C(=O)N1C[C@H]2[C@@H]([C@H]1C(=O)N[C@H](C#N)C[C@@H]1CCNC1=O)C2(C)C` [Ex24, (1R,2S,5S)—N—((S)-1-cyano-2-((S)-2-oxopyrrolidin-3-yl)ethyl)-3-((S)-3,3-dimethyl-2-(2-phenylacetamido)butanoyl)-6,6-dimethyl-3-azabicyclo[3.1.0]hexane-2-carboxamide] and `CC(=O)N[C@H](C(=O)N1C[C@H]2[C@@H]([C@H]1C(=O)N[C@H](C#N)C[C@@H]1CCNC1=O)C2(C)C)C(C)(C)C` [Ex29, (1R,2S,5S)-3-((S)-2-acetamido-3,3-dimethylbutanoyl)-N—((S)-1-cyano-2-((S)-2-oxopyrrolidin-3-yl)ethyl)-6,6-dimethyl-3-azabicyclo[3.1.0]hexane-2-carboxamide] cannot be ordered by pIC50: > 7.00 for the first, > 7.00 for the second.

Compared with `CC1(C)[C@@H]2[C@@H](C(=O)N[C@H](C#N)C[C@@H]3CCNC3=O)N(C(=O)c3cc4c(Cl)cccc4o3)C[C@@H]21` [Ex22, (1R,2S,5S)-3-(4-chlorobenzofuran-2-carbonyl)-N—((S)-1-cyano-2-((S)-2-oxopyrrolidin-3-yl)ethyl)-6,6-dimethyl-3-azabicyclo[3.1.0]hexane-2-carboxamide], `CC1(C)[C@@H]2[C@@H](C(=O)N[C@H](C#N)C[C@@H]3CCNC3=O)N(C(=O)c3cc4c(Cl)cccc4[nH]3)C[C@@H]21` [Ex21, (1R,2S,5S)-3-(4-chloro-1H-indole-2-carbonyl)-N—((S)-1-cyano-2-((S)-2-oxopyrrolidin-3-yl)ethyl)-6,6-dimethyl-3-azabicyclo[3.1.0]hexane-2-carboxamide] is higher in pIC50: < 6.00 for the first, 6.00 to 7.00 for the second. The second is the more potent here.

`CC(C)(C)[C@H](NC(=O)C1CCCC1)C(=O)N1C[C@H]2[C@@H]([C@H]1C(=O)N[C@H](C#N)C[C@@H]1CCNC1=O)C2(C)C` [Ex23, (1R,2S,5S)—N—((S)-1-cyano-2-((S)-2-oxopyrrolidin-3-yl)ethyl)-3-((S)-2-(cyclopentanecarboxamido)-3,3-dimethylbutanoyl)-6,6-dimethyl-3-azabicyclo[3.1.0]hexane-2-carboxamide] and `CC(C)C(=O)N[C@H](C(=O)N1C[C@H]2[C@@H]([C@H]1C(=O)N[C@H](C#N)C[C@@H]1CCNC1=O)C2(C)C)C(C)(C)C` [Ex27, (1R,2S,5S)—N—((S)-1-cyano-2-((S)-2-oxopyrrolidin-3-yl)ethyl)-3-((S)-2-isobutyramido-3,3-dimethylbutanoyl)-6,6-dimethyl-3-azabicyclo[3.1.0]hexane-2-carboxamide] cannot be ordered by pIC50: > 7.00 for the first, > 7.00 for the second.

Compared with `N#C[C@H](C[C@@H]1CCNC1=O)NC(=O)[C@@H]1[C@H]2CCC[C@H]2CN1C(=O)c1cc2c(Cl)cccc2[nH]1` [Ex14, (1S,3aR,6aS)-2-(4-chloro-1H-indole-2-carbonyl)-N—((S)-1-cyano-2-((S)-2-oxopyrrolidin-3-yl)ethyl)octahydrocyclopenta[c]pyrrole-1-carboxamide], `N#C[C@H](C[C@@H]1CCNC1=O)NC(=O)[C@@H]1C[C@H](Oc2ccccc2)CN1C(=O)c1cc2c(OC(F)F)cccc2[nH]1` [Ex19, (2S,4S)—N—((S)-1-cyano-2-((S)-2-oxopyrrolidin-3-yl)ethyl)-1-(4-(difluoromethoxy)-1H-indole-2-carbonyl)-4-phenoxypyrrolidine-2-carboxamide] is lower in pIC50: 6.00 to 7.00 for the first, < 6.00 for the second.
